Assays:
[1] = biological target: T1, hERG channel (Homo sapiens, UniProt Q12809); experiment: hERG fluorescence polarization assay (potential of inducing QT interval prolongation); type: binding
T1 construct: purchased Invitrogen
Experimental: The potential of the compound disclosed herein inducing QT interval prolongation was evaluated by detecting if the compound would block the hERG channel. The specific test method is as follows:
Precisely weighed compound disclosed herein was dissolved in DMSO to formulate a solution at the highest concentration of 10.0 mM, and then the solution was diluted to a initial concentration of 120.0 μM with hERG FP Assay Buffer (Invitrogen); the hERG Tracer Red stock solution (Invitrogen) and the positive control E-4031 stock solution (Invitrogen) were respectively diluted to initial concentrations of 4.0 nM and 120.0 μM with hERG FP Assay Buffer (Invitrogen). […]
The above-mentioned solution of the compound disclosed herein and E-4031 at the initial concentration of 120 μM were respectively diluted with hERG FP Assay Buffer 5-fold in series to provide 8 concentration of 120.0 μM, 24.0 μM, 4.8 μM, 960.0 nM, 192.0 nM, 38.4 nM, 7.7 nM and 1.5 nM. […] After that, the 384-well plate was put into an oscillator (PHMP-4, Grant-sio), in 25° C., 250 rpm, to incubate for 4 hours, and the fluorescence polarization values were measured by multi-function microplate reader (PHERAStarFS, BMG LABTECH) and corrected with the minimum and maximum fluorescence polarization values of E-4031, and the IC50 of the compound disclosed herein was calculated by GraphPad software. […]

[2] = Pharmacokinetic evaluation after intravenous or gavage administration to dogs; type: in vivo, Beagle dogs; settings: dogs; for AUC(0-inf): read-out: AUCINF; for AUC(0-t): read-out: AUClast; for Cmax: read-out: Cmax; for MRT inf: read-out: MRTINF; for half-life: read-out: T1/2 (converted)
Experimental: (§1) The compounds disclosed herein were administered in form of a saline solution containing 5% DMSO, 5% Kolliphor HS 15, 2% (2% HCl) and 88% Saline, or a solution containing 10% DMSO, 10% Kolliphor HS 15 and 80% physiological saline to the subject animals. For intravenous administration, the animals were administered with a dose of 1 mg/kg or 2 mg/kg, and vein blood samples (0.3 mL) were collected at the time points of 0.083, 0.25, 0.5, 1.0, 2.0, 4.0, 6.0, 8.0 and 24 h after drug administration; plasma samples were collected by centrifugation of the vein blood samples at 3000 rpm or 4000 rpm for 10 minutes, and stored at −20° C. or −70° C. For gavage administration, the animals were administered with a dose of 2.5 mg/kg or 5 mg/kg, and vein blood samples (0.3 mL) were collected at the time points of 0.25, 0.5, 1.0, 2.0, 4.0, 6.0, 8.0 and 24 h after drug administration; plasma samples were collected by centrifugation at 3000 rpm or 4000 rpm for 10 minutes, and stored at −20° C. or −70° C. The positive control is suvorexant.
(§2) The above plasma samples were analyzed by the LC-MS/MS system.

[3] = Pharmacokinetic evaluation after intravenous or gavage administration to rats; type: in vivo, SD rats; settings: rats; for AUC(0-inf): read-out: AUCINF; for AUC(0-t): read-out: AUClast; for Cmax: read-out: Cmax; for MRT inf: read-out: MRTINF; for half-life: read-out: T1/2 (converted)
Experimental: as §1, §2

[4] = Stability in human liver microsome; type: in vitro ADME; settings: microsomes, pH 4, human liver microsome 0.5 mg/mL, 1 μM, 37° C., NADPH
Experimental: A mixture of the compound of the invention and human liver microsome in 0.1 M potassium phosphate buffer (containing 1.0 mM EDTA, pH=4) was incubated at 37° C., the sample concentrations at different incubation times were measured, and then the half life of the compound was calculated by plotting “the relative amount of the compound” against “incubation time” by using software GraphPad Prism 5.01, and intrinsic clearance was calculated. The experiment system shown as table 5:
The sample was analyzed by LC/MS/MS (ESI […] source and waters xbridge C18 EB-A-1420 chromatographic column were adopted), the mobile phases were an aqueous solution with 2 mM ammonium formate and 0.1% formic acid (mobile phase A) and an methanol solution with 2 mM ammonium formate and 0.1% formic acid (mobile phase B), the flow rate was 0.4 mL/min; the column temperature was 40° C. The ratio of the sample peak area to the internal standard peak area was obtained through LC/MS/MS analysis, the content of the compound at 0 time point was as 100%, the relative content of the compound at each time point was calculated. The half life of the compound was calculated by plotting “the relative amount of the compound” against “incubation time”, and intrinsic clearance was calculated.
The positive control is suvorexant.

[5] = beagle, dog, in vivo, iv, 1 mg/kg
[6] = beagle, dog, in vivo, po, 5 mg/kg

T1 sequence (Q12809 whole entry): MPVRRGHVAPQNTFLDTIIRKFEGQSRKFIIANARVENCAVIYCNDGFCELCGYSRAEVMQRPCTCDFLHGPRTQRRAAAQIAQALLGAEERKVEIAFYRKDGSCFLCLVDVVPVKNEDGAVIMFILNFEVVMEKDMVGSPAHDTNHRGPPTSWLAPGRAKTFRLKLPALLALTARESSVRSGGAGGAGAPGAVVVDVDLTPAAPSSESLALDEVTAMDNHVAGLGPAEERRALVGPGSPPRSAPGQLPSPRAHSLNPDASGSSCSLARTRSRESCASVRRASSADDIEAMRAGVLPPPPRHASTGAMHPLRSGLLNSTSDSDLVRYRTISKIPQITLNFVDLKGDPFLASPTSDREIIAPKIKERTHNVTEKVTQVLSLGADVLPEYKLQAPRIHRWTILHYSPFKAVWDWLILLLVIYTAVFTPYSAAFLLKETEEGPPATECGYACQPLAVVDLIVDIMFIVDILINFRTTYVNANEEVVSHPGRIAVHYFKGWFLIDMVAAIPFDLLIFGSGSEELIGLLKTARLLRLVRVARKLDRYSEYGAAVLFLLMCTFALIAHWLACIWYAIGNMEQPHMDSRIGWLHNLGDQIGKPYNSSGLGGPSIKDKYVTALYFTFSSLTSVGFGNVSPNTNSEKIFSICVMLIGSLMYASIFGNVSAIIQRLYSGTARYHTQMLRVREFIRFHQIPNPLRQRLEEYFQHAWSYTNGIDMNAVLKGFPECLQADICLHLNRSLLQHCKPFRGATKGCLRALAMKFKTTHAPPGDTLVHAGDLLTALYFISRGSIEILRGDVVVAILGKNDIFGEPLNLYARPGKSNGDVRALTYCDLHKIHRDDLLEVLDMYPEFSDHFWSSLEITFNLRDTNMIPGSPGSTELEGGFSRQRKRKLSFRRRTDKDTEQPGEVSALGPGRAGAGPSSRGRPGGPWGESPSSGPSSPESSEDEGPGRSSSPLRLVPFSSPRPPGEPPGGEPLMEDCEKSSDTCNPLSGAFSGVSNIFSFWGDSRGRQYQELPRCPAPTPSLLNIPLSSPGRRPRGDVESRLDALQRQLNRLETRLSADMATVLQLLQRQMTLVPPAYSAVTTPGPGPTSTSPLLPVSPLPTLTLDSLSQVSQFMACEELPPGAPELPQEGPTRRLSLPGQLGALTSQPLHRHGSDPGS

Cc1ccc(-n2nccn2)c(C(=O)N2CCN(c3nc4cc(Cl)ccc4o3)CC[C@H]2C)c1 [suvorexant, reference compound]
IC50 [1]: 1.79 µM
AUC(0-inf) [2, 5]: 5960 ng·h/mL
AUC(0-t) [2, 5]: 5750 ng·h/mL
clearance ([2]; beagle, dog, in vivo, iv, 1 mg/kg, read-out: Cl): 2.82 mL/min/kg
Cmax [2, 5]: 2100 ng/mL
MRT inf [2, 5]: 5.39 h
half-life [2, 5]: 5.79 h
Vd ([2]; beagle, dog, in vivo, iv, 1 mg/kg, read-out: Vss): 0.919 L/kg
AUC(0-inf) [2, 6]: 14300 ng·h/mL
AUC(0-t) [2, 6]: 13600 ng·h/mL
Cmax [2, 6]: 1640 ng/mL
MRT inf [2, 6]: 7.2 h
half-life [2, 6]: 5.71 h
F ([2]; po, 5 mg/kg): 48%
AUC(0-inf) ([3]; SD, rat, in vivo, iv, 2 mg/kg): 655 ng·h/mL
AUC(0-t) ([3]; SD, rat, in vivo, iv, 2 mg/kg): 655 ng·h/mL
clearance ([3]; SD, rat, in vivo, iv, 2 mg/kg, read-out: Cl): 51.2 mL/min/kg
Cmax ([3]; SD, rat, in vivo, iv, 2 mg/kg): 784 ng/mL
MRT inf ([3]; SD, rat, in vivo, iv, 2 mg/kg): 0.708 h
half-life ([3]; SD, rat, in vivo, iv, 2 mg/kg): 0.569 h
Vd ([3]; SD, rat, in vivo, iv, 2 mg/kg, read-out: Vss): 2.17 L/kg
AUC(0-inf) ([3]; SD, rat, in vivo, po, 5 mg/kg): 530 ng·h/mL
AUC(0-t) ([3]; SD, rat, in vivo, po, 5 mg/kg): 528 ng·h/mL
Cmax ([3]; SD, rat, in vivo, po, 5 mg/kg): 249 ng/mL
MRT inf ([3]; SD, rat, in vivo, po, 5 mg/kg): 1.95 h
half-life ([3]; SD, rat, in vivo, po, 5 mg/kg): 0.99 h
F ([3]; po, 5 mg/kg): 32.4%
half-life at 1 μM ([4]; read-out: Half life): 9.85 min
CLint scaled at 1 μM ([4]; read-out: intrinsic clearance): 176 mL/min/kg
